The results in this text go back to PubChem BioAssay AID260 (DTP/NCI, 2004).

This assay concerns CD2F1 mice, intracerebral L1210 leukemia, survival T/C. Kind of assay: NCI In Vivo Anticancer Drug Screen. Data for tumor model L1210 Leukemia (intracerebral) in CD2F1 (CDF1) mice. The settings on record: higher = longer survival. As to the method: The antitumor activity of compounds was measured in mice bearing transplantable tumors. Survival or tumor size were measured and the results are expressed as the measurement made in the treated group (T) divided by the measurement made in the vehicle treated control group (C). The tumor model used in this assay is L1210 Leukemia (intracerebral) in CD2F1 (CDF1) mice

Where [1] appears, read: endpoint: median survival time, dose: 32.0 mg/kg/injection, schedule: Q01DX005 (ip), vehicle: saline with Tween-80.
Where [2] appears, read: endpoint: median survival time, dose: 64.0 mg/kg/injection, schedule: Q01DX005 (ip), vehicle: saline with Tween-80.
Where [3] appears, read: endpoint: median survival time, dose: 128.0 mg/kg/injection, schedule: Q01DX005 (ip), vehicle: saline with Tween-80.

The structures appear in SMILES notation. Values joined by “and” are separate entries in the source; they are usually repeats but may differ in a detail not shown here. Equal values may be shown once. Toxic doses and inconclusive results are not listed.

For the compound `C#C[C@]1(O)CC[C@H]2[C@@H]3CCc4cc(O)ccc4[C@H]3CC[C@@]21C`, the T/C was 100 % of control and 104 % of control (endpoint: median survival time, dose: 8.0 mg/kg/injection, schedule: Q01DX009 (ip), vehicle: saline with Tween-80); 96 % of control and 98 % of control (endpoint: median survival time, dose: 16.0 mg/kg/injection, schedule: Q01DX009 (ip), vehicle: saline with Tween-80); 97 % of control and 101 % of control (endpoint: median survival time, dose: 32.0 mg/kg/injection, schedule: Q01DX009 (ip), vehicle: saline with Tween-80); 100 % of control and 101 % of control (endpoint: median survival time, dose: 64.0 mg/kg/injection, schedule: Q01DX009 (ip), vehicle: saline with Tween-80); 93 % of control and 101 % of control (endpoint: median survival time, dose: 128.0 mg/kg/injection, schedule: Q01DX009 (ip), vehicle: saline with Tween-80); 86 % of control and 101 % of control (endpoint: median survival time, dose: 256.0 mg/kg/injection, schedule: Q01DX009 (ip), vehicle: saline with Tween-80).
For `CN(Cc1ccccc1)/N=N/c1nc[nH]c1C(N)=O`, the T/C is 112 % of control under setting [1] and 94 % of control (endpoint: median survival time, dose: 512.0 mg/kg/injection, schedule: Q01DX005 (ip), vehicle: saline with Tween-80).
In the case of `CCCN(C)/N=N/c1nc[nH]c1C(N)=O`, the T/C runs as follows: (endpoint: median survival time, dose: 4.0 mg/kg/injection, schedule: Q01DX005 (ip), vehicle: suspension in saline) 105 % of control; (endpoint: median survival time, dose: 8.0 mg/kg/injection, schedule: Q01DX005 (ip), vehicle: suspension in saline) 109 % of control; (endpoint: median survival time, dose: 16.0 mg/kg/injection, schedule: Q01DX005 (ip), vehicle: suspension in saline) 112 % of control; (endpoint: median survival time, dose: 32.0 mg/kg/injection, schedule: Q01DX005 (ip), vehicle: suspension in saline) 118 % of control; (endpoint: median survival time, dose: 64.0 mg/kg/injection, schedule: Q01DX005 (ip), vehicle: suspension in saline) 124 % of control.
For the compound `COC(=O)c1cccc(N=NN(C)C)c1`, the T/C runs as follows: (endpoint: median survival time, dose: 8.0 mg/kg/injection, schedule: Q01DX005 (ip), vehicle: saline + alcohol) 104 % of control; (endpoint: median survival time, dose: 16.0 mg/kg/injection, schedule: Q01DX005 (ip), vehicle: saline + alcohol) 100 % of control; (endpoint: median survival time, dose: 32.0 mg/kg/injection, schedule: Q01DX005 (ip), vehicle: saline + alcohol) 104 % of control; (endpoint: median survival time, dose: 64.0 mg/kg/injection, schedule: Q01DX005 (ip), vehicle: saline + alcohol) 113 % of control; (endpoint: median survival time, dose: 128.0 mg/kg/injection, schedule: Q01DX005 (ip), vehicle: saline + alcohol) 117 % of control.
Regarding `O=CC(NC(=O)N(CCCl)N=O)C(O)C(O)C(O)CO` (stereo not drawn), the T/C (endpoint: median survival time, dose: 3.13 mg/kg/injection, schedule: Q01DX001 (ip), vehicle: saline) is 103 % of control; the T/C (endpoint: median survival time, dose: 6.25 mg/kg/injection, schedule: Q01DX001 (ip), vehicle: saline) was 106 % of control; the T/C (endpoint: median survival time, dose: 12.5 mg/kg/injection, schedule: Q01DX001 (ip), vehicle: saline) is 122 % of control; the T/C (endpoint: median survival time, dose: 25.0 mg/kg/injection, schedule: Q01DX001 (ip), vehicle: DMSO) is 152 % of control; the T/C (endpoint: median survival time, dose: 50.0 mg/kg/injection, schedule: Q01DX001 (ip), vehicle: DMSO) is 95 % of control; the T/C (endpoint: median survival time, dose: 50.0 mg/kg/injection, schedule: Q01DX001 (ip), vehicle: saline) was 92 % of control. The T/C (endpoint: median survival time, dose: 50.0 mg/kg/injection, schedule: Q01DX001 (oral), vehicle: saline) was 97 % of control.
On to `CC(=O)c1ccccc1N=NN(C)C`, for which the T/C is 91 % of control (endpoint: mean survival time, dose: 10.0 mg/kg/injection, schedule: Q01DX007 (ip), vehicle: DMSO); 91 % of control (endpoint: mean survival time, dose: 20.0 mg/kg/injection, schedule: Q01DX007 (ip), vehicle: DMSO); 93 % of control (endpoint: mean survival time, dose: 40.0 mg/kg/injection, schedule: Q01DX007 (ip), vehicle: DMSO); 103 % of control (endpoint: mean survival time, dose: 80.0 mg/kg/injection, schedule: Q01DX007 (ip), vehicle: DMSO); 100 % of control (endpoint: mean survival time, dose: 120.0 mg/kg/injection, schedule: Q01DX007 (ip), vehicle: DMSO).
On to `CN(C)N=Nc1ccccc1`, for which the T/C reads like this: (endpoint: mean survival time, dose: 6.25 mg/kg/injection, schedule: Q01DX009 (ip), vehicle: Klucel (hydroxypropylcellulose) (HPC)) 101 % of control and 104 % of control and 112 % of control; (endpoint: mean survival time, dose: 12.5 mg/kg/injection, schedule: Q01DX009 (ip), vehicle: Klucel (hydroxypropylcellulose) (HPC)) 109 % of control and 112 % of control and 113 % of control; (endpoint: mean survival time, dose: 25.0 mg/kg/injection, schedule: Q01DX009 (ip), vehicle: Klucel (hydroxypropylcellulose) (HPC)) 118 % of control; (endpoint: mean survival time, dose: 50.0 mg/kg/injection, schedule: Q01DX009 (ip), vehicle: Klucel (hydroxypropylcellulose) (HPC)) 120 % of control and 107 % of control and 115 % of control.
As to `CCCN(C)C(=O)N(CCCl)N=O`, the T/C by setting is: (endpoint: median survival time, dose: 15.6 mg/kg/injection, schedule: Q01DX001 (ip), vehicle: DMSO) 166 % of control; (endpoint: median survival time, dose: 15.6 mg/kg/injection, schedule: Q01DX001 (oral), vehicle: saline + alcohol) 113 % of control; (endpoint: median survival time, dose: 31.3 mg/kg/injection, schedule: Q01DX001 (ip), vehicle: saline + alcohol) 172 % of control; (endpoint: median survival time, dose: 31.3 mg/kg/injection, schedule: Q01DX001 (oral), vehicle: saline + alcohol) 154 % of control; (endpoint: median survival time, dose: 62.5 mg/kg/injection, schedule: Q01DX001 (ip), vehicle: saline + alcohol) 389 % of control; (endpoint: median survival time, dose: 62.5 mg/kg/injection, schedule: Q01DX001 (oral), vehicle: saline + alcohol) 271 % of control. Besides, the T/C runs as follows: (endpoint: median survival time, dose: 125.0 mg/kg/injection, schedule: Q01DX001 (ip), vehicle: saline + alcohol) 198 % of control; (endpoint: median survival time, dose: 125.0 mg/kg/injection, schedule: Q01DX001 (oral), vehicle: saline + alcohol) 490 % of control; (endpoint: median survival time, dose: 250.0 mg/kg/injection, schedule: Q01DX001 (ip), vehicle: DMSO) 169 % of control; (endpoint: median survival time, dose: 250.0 mg/kg/injection, schedule: Q01DX001 (ip), vehicle: saline + alcohol) 116 % of control; (endpoint: median survival time, dose: 250.0 mg/kg/injection, schedule: Q01DX001 (oral), vehicle: saline + alcohol) 97 % of control.
For the compound `CN(CCO)/N=N/c1nc[nH]c1C(N)=O`, the T/C under setting [1] is 107 % of control; the T/C under setting [2] was 106 % of control; the T/C under setting [3] was 109 % of control; the T/C (endpoint: median survival time, dose: 256.0 mg/kg/injection, schedule: Q01DX005 (ip), vehicle: saline with Tween-80) is 119 % of control.
Regarding `CN(N=O)C(=O)Nc1c[nH]c(=O)[nH]c1=O`, the T/C (endpoint: median survival time, dose: 8.0 mg/kg/injection, schedule: Q01DX005 (ip), vehicle: saline with Tween-80) was 100 % of control; the T/C (endpoint: median survival time, dose: 16.0 mg/kg/injection, schedule: Q01DX005 (ip), vehicle: saline with Tween-80) was 103 % of control; the T/C under setting [1] is 100 % of control; the T/C under setting [2] was 110 % of control; the T/C under setting [3] is 119 % of control.
Turning to `CCCCCCCCCCCCCCCCCC(=O)Nc1ccn(C2OC(CO)C(O)C2O)c(=O)n1` (stereo not drawn), the T/C by setting is: (endpoint: median survival time, dose: 25.0 mg/kg/injection, schedule: Q01DX009 (ip), vehicle: saline with Tween-80) 188 % of control; (endpoint: median survival time, dose: 100.0 mg/kg/injection, schedule: Q01DX009 (ip), vehicle: saline with Tween-80) 121 % of control.
For `CC1CC(C)/C(=N/NC(N)=S)C(C(O)CC2CC(=O)NC(=O)C2)C1` (stereo not drawn), the T/C is 101 % of control (endpoint: mean survival time, dose: 25.0 mg/kg/injection, schedule: Q01DX009 (ip), vehicle: saline); 100 % of control (endpoint: mean survival time, dose: 50.0 mg/kg/injection, schedule: Q01DX009 (ip), vehicle: saline); 105 % of control (endpoint: mean survival time, dose: 100.0 mg/kg/injection, schedule: Q01DX009 (ip), vehicle: saline); 106 % of control (endpoint: mean survival time, dose: 200.0 mg/kg/injection, schedule: Q01DX009 (ip), vehicle: saline); 101 % of control (endpoint: mean survival time, dose: 400.0 mg/kg/injection, schedule: Q01DX009 (ip), vehicle: saline).
As for `C[C@H](CN1CC(=O)NC(=O)C1)N1CC(=O)NC(=O)C1`, the T/C (endpoint: mean survival time, dose: 64.0 mg/kg/injection, schedule: Q01DX009 (ip), vehicle: water) is 159 % of control; the T/C (endpoint: mean survival time, dose: 128.0 mg/kg/injection, schedule: Q01DX009 (ip), vehicle: water) is 109 % of control; the T/C (endpoint: mean survival time, dose: 256.0 mg/kg/injection, schedule: Q01DX009 (ip), vehicle: water) is 90 % of control.
Consider `COS(C)(=O)=O`, for which the T/C is 107 % of control and 108 % of control (endpoint: median survival time, dose: 16.0 mg/kg/injection, schedule: Q01DX005 (ip), vehicle: saline); 120 % of control (endpoint: median survival time, dose: 32.0 mg/kg/injection, schedule: Q01DX005 (ip), vehicle: saline); 113 % of control (endpoint: median survival time, dose: 64.0 mg/kg/injection, schedule: Q01DX005 (ip), vehicle: saline); 107 % of control and 111 % of control (endpoint: median survival time, dose: 128.0 mg/kg/injection, schedule: Q01DX005 (ip), vehicle: saline).
